According to patent publication US20230172901A1, “COMPOSITIONS AND METHODS FOR THE PROPHYLAXIS AND TREATMENT OF FIBROTIC AND INFLAMMATORY CONDITIONS” (GRETALS AUSTRALIA PTY LTD, priority 2020, published 2023):
“Also recorded” adds a separate entry of the source.

How the values were obtained:
Format in all cases: in vivo
[1] = test system: sheep model for pulmonary fibrosis, bleomycin-injured lung segments; assay: Example 2: CD4+ and CD8+ T cells in lung parenchyma (immunohistochemistry)
Text: (§1) In this study, a total of 10 sheep were used. Fibrosis in two lung segments of each sheep in a similar manner as performed in Example 1 herein. Using this procedure (as detailed further below) the fibrosis was confined to small, isolated regions in the lungs leaving the remaining 90-95% of the healthy unaffected lungs to undertake normal respiratory function.
All sheep (n=10) in the study were challenged with 2 single doses of bleomycin (3 units) per lung segment, a fortnight apart and the animals were kept for a little over 5 weeks after the final bleomycin dose. Bleomycin is a well-known agent for inducing fibrosis in the lungs. The administration procedure involves inserting a bronchoscope into lung segments in the right and left lung, and then slowly infusing the bleomycin into two segments as shown in FIG. 2 via the bronchoscope biopsy port.
In the study detailed in Example 1 herein, the dose-rate of pinocembrin was 7 mg pinocembrin per sheep, per week.
For control purposes the lung segment in the opposite lung was used as a bleomycin-positive, without drug, control, as indicated in FIG. 1. The bioactive molecules in vehicle, were delivered as 5 ml infusions through the biopsy port of the bronchoscope. Note that to nullify any small differences (e.g. physiological or anatomical etc.) between the left and right lungs, the infusions of pinocembrin were randomized between the left and right caudal lung segments. Half the animals (5 sheep) received pinocembrin to the right caudal lung segments, while the other 5 sheep received pinocembrin to the left caudal lung segments. The right medial lung segment was left untreated and used for healthy lung control tissue which was sampled at autopsy (FIG. 2). […]
Immunohistochemistry was performed on these frozen tissue sections using the indirect immunoperoxidase technique. […] For cell counts, either 200 immunoperoxidase positive cells were counted in a maximum of 20 microscope fields (×400 magnification) using an area-calibrated grid, or a minimum of 20 microscope fields were counted for less frequent counts.

[2] = test system: sheep model of lung disease, bleomycin-induced lung damage; assay: Example 1: bleomycin sheep pulmonary model, lung function, inflammation and fibrosis (3 sheep)
Text: In animal models, bleomycin is the most widely used agent to characterise pulmonary fibrosis. In the sheep model, intratracheal administrations of two doses of bleomycin is used to induce fibrosis in the lung parenchyma. The overall study protocol is shown at FIG. 1.
For this example, three female merino sheep aged between 9 months and 1 year were utilised. Animals were housed indoors and received anthelminthic to treat for any existing parasitic disease. The sheep were judged to be free from significant pulmonary disease on the basis of clinical examination before the commencement of experiments and on inspection of gross pathology at autopsy. The Animal Experimentation Ethics Committee of the University of Melbourne, which adheres to the Australian Code of Practice for the care and use of laboratory animals for scientific purposes, approved all experimental procedures outlined below.
Bleomycin sulphate was made up at a concentration of 0.6 U bleomycin/mL saline and administered to the left and right caudal lobes at a rate of 3 U per segment to cause injury to the tissue and trigger fibrosis. For the left caudal lobe, 7 mg of pinocembrin in 10% DMSO was administered to test the efficacy of pinocembrin in the treatment or prevention of bleomycin-induced fibrosis. For the right caudal lobe injury was induced by bleomycin, and DMSO alone administered such that any differential effects between the left and right caudal lobes could be attributed to the pinocembrin.
A saline solution was administered to the right medial lobe, as a sham treatment.
Each of the bleomycin, bleomycin/pinocembrin, and saline compositions was administered via the biopsy port of a fibre-optic bronchoscope to the appropriate lung segments as a 5 ml bolus.
Timing of the administration of the various compositions is summarised at FIG. 1, with all three sheep euthanized at week 12.
The sheep were euthanized by an intravenous overdose of barbiturate (Lethabarb, Veterinary Clinic, University of Melbourne, Werribee, Australia) at week 12 as outlined in FIG. 1 for tissue collection and analysis.
Following euthanasia, the lungs were removed and targeted lung segments identified and carefully dissected free from surrounding tissue. Individual segments were then inflated with a 1:1 mixture of OCT and sterile PBS solution. […]
Segmental compliance (Cseg) was assessed using pressure responses to flow in the different segments as indicated FIG. 2 in awake, consciously breathing sheep using a wedged-bronchoscope technique. […]
Segmental lung compliance was calculated. […] Segmental compliance was then calculated from the pressure-flow decay curve generated from this procedure. The process was repeated 3 times for each segment and expressed as an average value for Cseg. […]

[3] = test system: sheep model for pulmonary fibrosis, bleomycin-injured lung segments; assay: Example 2: Masson's trichrome assay of connective tissue content
Text: as §1
All sheep (n=10) in the study were challenged with 2 single doses of bleomycin (3 units) per lung segment, a fortnight apart and the animals were kept for a little over 5 weeks after the final bleomycin dose. Bleomycin is a well-known agent for inducing fibrosis in the lungs. […]
The degree of fibrosis was quantified by assessing the changes in overall connective tissue content within the parenchymal tissue using methods known to the skilled person. […] The images were then analysed using Image-Pro® Plus (Version 6.3 for Windows, Media Cybernetics, Bethesda, Md., USA) using the ‘colour selector’ tool to measure the area of blue-stained tissues (collagen and other connective tissues) within each field of view. […] The fraction of blue stained tissue area was expressed as a percentage per total field area (percentage of blue stained tissue area per total field area). […]

[4] = week 12 post-mortem, vs bleomycin alone, 4 weekly infusions of 7 mg, n=10 sheep
[5] = 7 mg pinocembrin in 10% DMSO, 4 weekly doses, left vs right caudal segment

**Q.** What does the source list for O=C1CC(c2ccccc2)Oc2cc(O)cc(O)c21 (stereo not drawn) [pinocembrin, 5,7-Dihydroxy-2-Phenyl-2,3-Dihydro-4H-Chromen-4-One]?
**A.** sheep with lower CD8+ and CD4+ T cells after pinocembrin treatment ([1]; individual sheep data, 10 sheep): All sheep; numbers of CD4+ T cells in the lung parenchyma [1, 4]: significantly lower; also recorded: significant reduction; numbers of CD8+ T cells in the lung parenchyma [1, 4]: significantly lower; also recorded: significant reduction; beneficial effect of pinocembrin (significance, number of sheep) [2]: statistically significant and noted in all three sheep; lung function ([2]; 7 mg pinocembrin in 10% DMSO, 4 weekly doses, bleomycin-injured left caudal segment vs right caudal segment (bleomycin + DMSO)): improvement; fibrosis [2, 5]: decrease; inflammation [2, 5]: decrease; sheep with decreased percentage blue values ([3]; individual sheep data, vs bleomycin injury without pinocembrin, 10 sheep): nine out of ten; percentage blue staining, Masson's Trichrome stained connective tissue ([3]; vs bleomycin-infused lung without pinocembrin, 4 weekly treatments of 7 mg, n=10 sheep): significantly reduces; also recorded: significant decrease; also recorded: significantly lower
